This note sets out measurements from patent publication US11591342B2, “Heterocyclic compound, application thereof and pharmaceutical composition comprising same” (SUZHOU SINOVENT PHARMACEUTICALS CO., LTD., priority 2018, dated 2023).

Each structure is given as a SMILES string.

For one data set, the target named is Autotaxin (ATX) (Homo sapiens (Human), UniProt Q13822). Kind of data set: ATX bioactivity assay (Amplex Red / choline oxidase / HRP fluorescence, LPC 16:0 substrate). To be noted: 30 min room temperature. The data set is classed as biochemical.
Another data set has as its system LPA18:2 in mouse plasma. Kind of data set: Inhibition of LPA in mouse plasma (plasma LPA18:2 assay, LC-MS/MS). The data set is classed as biochemical, CD1 mice. Conditions: fresh CD1 mouse plasma, LPA18:2, 37° C. for 120 min. As to the method: Effect Example 2. Inhibition of LPA in Mouse Plasma by Compounds
20 mM stock solutions of the compounds were prepared with DMSO and then diluted to 1 mM, which was subjected to a serial 3-fold dilution to yield 10 working solutions.
Collection of Fresh Mouse Plasma:
CD1 mice were euthanized by CO2 inhalation. Approximately 1 mL of whole blood was taken by cardiac puncture, with EDTA-K2 for anticoagulation. The blood was centrifuged at 3220 g for 10 min at 4° C. for plasma collection.
Reactions were performed in a 96-well plate, and the samples were tested in duplicate. 1 μL of each working solution was added to 100 μL of plasma, with the final concentrations of […]. 1 μL of DMSO was added to plasma to serve as blank. The samples were incubated in a water bath at 37° C. for 120 min, and 600 μL of 10 μM tolbutamide in methanol was added to terminate the reaction. Tolbutamide also served as an internal standard. After 5 min of vortex mixing, the samples were centrifuged at 3220 g for 45 min at 4° C. to precipitate the protein. 100 μL of the supernatant was transferred to a new plate, diluted with water based on LC-MS response and peak shapes, mixed well and analyzed by LC-MS/MS.
LPA18:2 was quantified using peak area ratio (LPA18:2/internal standard), requiring no standard curve. For test compounds of different concentrations, LPA data was represented by a percentage decrease of LPA: 100-[((LPA peak area ratio of compound)/(LPA peak area ratio of control))×100]. IC50 was calculated using Graphpad Prism 6.0 software.

The target in a further data set is CYP3A4 (Homo sapiens (Human), UniProt P08684). Kind of data set: Time-dependent inhibition of CYP3A4 (TDI assay, human liver microsomes). Conditions: for CYP3A4 TDI % @ 10 μM: human liver microsomes, Midazolam substrate, 30 min with NADPH vs 0 min; for time-dependent inhibition on CYP3A4 (conclusion): conclusion drawn from Table 3, 10 μM. The data set is classed as in vitro ADME. The method in brief: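 Human liver microsomes (final 1 mg/mL) preincubated with test compound for 0 min without NADPH or 30 min with NADPH in 100 mM K-phosphate pH 7.4, 37 °C. Aliquot then diluted into midazolam substrate plus NADPH and incubated 15 min at 37 °C. Quenched with acetonitrile; metabolite read by LC-MS/MS.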
A general note: Liver microsomes are vesicles of endoplasmic reticulum, rich in cytochrome P450 enzymes.

CYP3A4, sequence (P08684 whole entry): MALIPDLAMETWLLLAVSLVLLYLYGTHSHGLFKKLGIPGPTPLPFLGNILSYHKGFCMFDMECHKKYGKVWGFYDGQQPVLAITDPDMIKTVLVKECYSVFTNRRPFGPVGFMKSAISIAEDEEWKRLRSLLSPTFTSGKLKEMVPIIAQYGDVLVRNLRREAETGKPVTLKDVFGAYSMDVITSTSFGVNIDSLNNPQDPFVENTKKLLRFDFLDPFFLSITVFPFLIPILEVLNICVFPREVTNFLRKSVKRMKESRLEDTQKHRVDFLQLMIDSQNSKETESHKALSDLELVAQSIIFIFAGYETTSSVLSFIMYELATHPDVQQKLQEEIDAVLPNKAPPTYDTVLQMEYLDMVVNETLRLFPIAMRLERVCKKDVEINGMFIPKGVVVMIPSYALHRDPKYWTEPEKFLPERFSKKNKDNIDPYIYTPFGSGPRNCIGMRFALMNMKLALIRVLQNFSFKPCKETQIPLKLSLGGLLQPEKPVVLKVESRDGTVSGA

For `CCn1nc2c(F)cc(N3CCN(CC(=O)N4CC(O)C4)CC3)cc2c1N(C)c1nc(-c2ccc(F)cc2)c(C#N)s1` [Compound S-0025, 2-((2-ethyl-7-fluoro-5-(4-(2-(3-hydroxyazetidin-1-yl)-2-oxoethyl)piperazin-1-yl)-2H-indazol-3-yl)(methyl)amino)-4-(4-fluorophenyl)thiazole-5-carbonitrile], the IC50 (as a rule, the concentration that inhibits the measured activity by half) against Autotaxin (ATX) was 88 nM. Further, 131 nM corresponded to half-maximal inhibition in the data set with LPA18:2 in mouse plasma (IC50). On CYP3A4, the “CYP3A4 TDI % @ 10 μM” value is 34.21% and the “time-dependent inhibition on CYP3A4 (conclusion)” value (“time-dependent inhibition” below) is “weak time-dependent inhibition on CYP3A4”.

Compound `CCN(c1nc(-c2ccc(F)cc2)c(C#N)s1)c1c2cc(N3CCN(CC(=O)N4CC(O)C4)CC3C(F)(F)F)cc(F)c2nn1CC` (single isomer, unassigned) [Compound S-0134B, 2-(ethyl (2-ethyl-7-fluoro-5-(4-(2-(3-hydroxyazetidin-1-yl)-2-oxoethyl)-2-(trifluoromethyl)piperazin-1-yl)-2H-indazol-3-yl)amino)-4-(4-fluorophenyl)thiazole-5-carbonitrile] returned a concentration for half-maximal inhibition (IC50) against Autotaxin (ATX) of 11 nM. In addition, half-maximal inhibition in the data set on LPA18:2 in mouse plasma (IC50) required 98 nM. For the same compound, at CYP3A4, the “CYP3A4 TDI % @ 10 μM” value is on record as 41.82% and the “time-dependent inhibition” value is “weak time-dependent inhibition on CYP3A4”.

On to `CCc1oc2ccc(N3CCN(CC(=O)N4CC(O)C4)CC3)nc2c1N(C)c1nc(-c2ccc(F)cc2)c(C#N)s1` [Compound S-0097, 2-((2-ethyl-5-(4-(2-(3-hydroxyazetidin-1-yl)-2-oxoethyl)piperazin-1-yl)furo[3,2-b]pyridin-3-yl)(methyl)amino)-4-(4-fluorophenyl)thiazole-5-carbonitrile], for which the IC50 on Autotaxin (ATX) and in the data set on LPA18:2 in mouse plasma was 160 nM in each case. Also, at CYP3A4, the “CYP3A4 TDI % @ 10 μM” value was found to be 12.51%. Further, on CYP3A4, the “time-dependent inhibition” value is reported as “no time-dependent inhibition on CYP3A4”.

`CCc1nn2c(C)cc(N3CCN(CC(=O)N4CC(O)C4)CC3)nc2c1N(C)c1nc(-c2ccc(F)cc2)c(C#N)s1` [Compound S-0035, 2-((2-ethyl-5-(4-(2-(3-hydroxyazetidin-1-yl)-2-oxoethyl)piperazin-1-yl)-7-methylpyrazolo[1,5-a]pyrimidin-3-yl)(methyl)amino)-4-(4-fluorophenyl)thiazole-5-carbonitrile] showed a half-inhibitory concentration (IC50) against Autotaxin (ATX) of 62 nM. Also, the 50% inhibitory concentration (IC50) in the data set with LPA18:2 in mouse plasma came to 300 nM. In addition, on CYP3A4, the “CYP3A4 TDI % @ 10 μM” value is listed as −4.84% and the “time-dependent inhibition” value was “no time-dependent inhibition on CYP3A4”.

In the case of `CCN(c1nc(-c2ccc(F)cc2)c(C#N)s1)c1c2cc(N3CCN(CC(=O)N4CC(O)C4)CC3)cc(F)c2nn1CC` [Compound S-0122, 2-(ethyl(2-ethyl-7-fluoro-5-(4-(2-(3-hydroxyazetidin-1-yl)-2-oxoethyl)piperazin-1-yl)-2H-indazol-3-yl)amino)-4-(4-fluorophenyl)thiazole-5-carbonitrile], the values for the IC50 against Autotaxin (ATX) and in the data set with LPA18:2 in mouse plasma were 25 nM and 61 nM, respectively. Besides, the “CYP3A4 TDI % @ 10 μM” value at CYP3A4 was 38.25%. In addition, the “time-dependent inhibition” value at CYP3A4 was “weak time-dependent inhibition on CYP3A4”.

As to `CCn1nc2c(C)cc(N3CCN(CC(=O)N4CC(O)C4)CC3)nc2c1N(C)c1nc(-c2ccc(F)cc2)c(C#N)s1` [Compound S-0095, 2-((2-ethyl-5-(4-(2-(3-hydroxyazetidin-1-yl)-2-oxoethyl)piperazine-1-yl)-7-methyl-2H-pyrazolo[4,3-b]pyridin-3-yl)(methyl)amino)-4-(4-fluorophenyl)thiazole-5-carbonitrile], the IC50 at Autotaxin (ATX) was 119 nM; with LPA18:2 in mouse plasma, 309 nM. On CYP3A4, the “CYP3A4 TDI % @ 10 μM” value was 2.91%. The “time-dependent inhibition” value at CYP3A4 is “no time-dependent inhibition on CYP3A4”.

In turn, `CCc1nc2ncc(N3CCN(CC(=O)N4CC(O)C4)CC3)cn2c1N(C)c1nc(-c2ccc(F)cc2)c(C#N)s1` [Compound S-0021, 2-((2-ethyl-6-(4-(2-(3-hydroxyazetidin-1-yl)-2-oxoethyl)piperazin-1-yl)imidazo[1,2-a]pyrimidin-3-yl)(methyl)amino)-4-(4-fluorophenyl)thiazole-5-carbonitrile] came in with a 50% inhibitory concentration (IC50) on Autotaxin (ATX) of 102 nM. In the data set with LPA18:2 in mouse plasma, this compound gave an IC50 of 790 nM. Besides, at CYP3A4, the “CYP3A4 TDI % @ 10 μM” value is 1.67% and the “time-dependent inhibition” value is “no time-dependent inhibition on CYP3A4”.

In the case of `CCc1[nH]c2ccc(N3CCN(CC(=O)N4CC(O)C4)CC3)nc2c1N(C)c1nc(-c2ccc(F)cc2)c(C#N)s1` [Compound S-0098, 2-((2-ethyl-5-(4-(2-(3-hydroxyazetidin-1-yl)-2-oxoethyl)piperazin-1-yl)-1H-pyrrolo[3,2-b]pyridin-3-yl)(methyl)amino)-4-(4-fluorophenyl) thiazole-5-carbonitrile], the values for the concentration for half-maximal inhibition (IC50) against Autotaxin (ATX) and in the data set on LPA18:2 in mouse plasma were 31 nM and 2 nM, respectively. Besides, the “CYP3A4 TDI % @ 10 μM” value on CYP3A4 is listed as 37.19%. Besides, the “time-dependent inhibition” value on CYP3A4 is recorded as “weak time-dependent inhibition on CYP3A4”.

On to `CCn1nc2ccc(N3CCN(CC(=O)N4CC(O)C4)CC3)nc2c1N(C)c1nc(-c2ccc(F)cc2)c(C#N)s1` [Compound S-0094, 2-((2-ethyl-5-(4-(2-(3-hydroxyazetidin-1-yl)-2-oxoethyl)piperazin-1-yl)-2H-pyrazolo[4,3-b]pyridin-3-yl)(methyl)amino)-4-(4-fluorophenyl) thiazole-5-carbonitrile], for which inhibition at Autotaxin (ATX) was half-maximal at 23 nM (IC50). The compound further came in with a half-inhibitory concentration (IC50) in the data set on LPA18:2 in mouse plasma of 13 nM. At CYP3A4, the “CYP3A4 TDI % @ 10 μM” value is 20.88% and the “time-dependent inhibition” value is reported as “no time-dependent inhibition on CYP3A4”.

For the compound `CCN(c1nc(-c2ccc(F)cc2)c(C#N)s1)c1c2nc(N3CCN(CC(=O)N4CC(O)C4)CC3)cc(C)c2nn1CC` [Compound S-0124, 2-(ethyl(2-ethyl-5-(4-(2-(3-hydroxyazetidin-1-yl)-2-oxoethyl)piperazin-1-yl)-7-methyl-2H-pyrazolo[4,3-b]pyridin-3-yl)amino)-4-(4-fluorophenyl) thiazole-5-carbonitrile], the IC50 was 24 nM on Autotaxin (ATX) and 96 nM in the data set with LPA18:2 in mouse plasma. At CYP3A4, the “CYP3A4 TDI % @ 10 μM” value amounted to 8.74%. The “time-dependent inhibition” value on CYP3A4 was “no time-dependent inhibition on CYP3A4”.

On Autotaxin (ATX), `CCc1oc2ccc(N3CCN(CC(=O)N4CC(O)C4)CC3)nc2c1N(CC)c1nc(-c2ccc(F)cc2)c(C#N)s1` [Compound S-0105CP, 2-(ethyl(2-ethyl-5-(4-(2-(3-hydroxyazetidin-1-yl)-2-oxoethyl)piperazin-1-yl)furo[3,2-b]pyridin-3-yl)amino)-4-(4-fluorophenyl)thiazole-5-carbonitrile] gave an IC50 of 49 nM. The IC50 with LPA18:2 in mouse plasma was 111 nM. In addition, at CYP3A4, the “CYP3A4 TDI % @ 10 μM” value is reported as 0% and the “time-dependent inhibition” value is listed as “no time-dependent inhibition on CYP3A4”.

In turn, `CCc1sc2ccc(N3CCN(CC(=O)N4CC(O)C4)CC3)nc2c1N(C)c1nc(-c2ccc(F)cc2)c(C#N)s1` [Compound S-0129, 2-((2-ethyl-5-(4-(2-(3-hydroxyazetidin-1-yl)-2-oxoethyl)piperazin-1-yl)thieno[3,2-b]pyridin-3-yl)(methyl)amino)-4-(4-fluorophenyl)thiazole-5-carbonitrile] gave an IC50 on Autotaxin (ATX) of 264 nM. This compound also yielded a 50% inhibitory concentration (IC50) with LPA18:2 in mouse plasma of 268 nM. Besides, at CYP3A4, the “CYP3A4 TDI % @ 10 μM” value is reported as 14.42% and the “time-dependent inhibition” value is “no time-dependent inhibition on CYP3A4”.

Consider `CCc1c(N(C)c2nc(-c3ccc(F)cc3)c(C#N)s2)c2nc(N3CCN(CC(=O)N4CC(O)C4)CC3)ccc2n1C` [Compound S-0128, 2-((2-ethyl-5-(4-(2-(3-hydroxyazetidin-1-yl)-2-oxoethyl)piperazin-1-yl)-1-methyl-1H-pyrrolo[3,2-b]pyridin-3-yl)(methyl)amino)-4-(4-fluorophenyl)thiazole-5-carbonitrile], for which the 50% inhibitory concentration (IC50) against Autotaxin (ATX) worked out at 142 nM. Also, the midpoint of inhibition with LPA18:2 in mouse plasma, the IC50, lay at 57 nM. For the same compound, on CYP3A4, the “CYP3A4 TDI % @ 10 μM” value is recorded as 33.64% and the “time-dependent inhibition” value was “weak time-dependent inhibition on CYP3A4”.

`CCN(c1nc(-c2ccc(F)cc2)c(C#N)s1)c1c2nc(N3CCN(CC(=O)N4CC(O)C4)CC3)ccc2nn1CC` [Compound S-0117, 2-(ethyl(2-ethyl-5-(4-(2-(3-hydroxyazetidin-1-yl)-2-oxoethyl)piperazin-1-yl)-2H-pyrazolo[4,3-b]pyridin-3-yl)amino)-4-(4-fluorophenyl)thiazole-5-carbonitrile] returned a half-inhibitory concentration (IC50) on Autotaxin (ATX) of 12 nM. This compound also showed an IC50 in the data set with LPA18:2 in mouse plasma of 38 nM. On CYP3A4, the “CYP3A4 TDI % @ 10 μM” value is given as 15.2% and the “time-dependent inhibition” value is given as “no time-dependent inhibition on CYP3A4”.
